Entries after “also recorded” stand apart in the source; their conditions may differ.
Legend:
recombinant HDAC8 = conditions: ref Chou et al., 2008; cited from earlier work
[1] = system: acetylated histone H3 in FRDA lymphoblast cell line; assay: Histone H3 acetylation by western blot in FRDA lymphoblasts; assay type: cell-based, human; conditions: for hyperacetylation of histone H3 after inhibitor removal: 3 or 106 at 10 μM, SAHA at 2 μM, 24 h, then washed, 0 to 7 h
class II HDACs = conditions: read-out: IC50s for class II enzymes; ref Chou et al., 2008; cited from earlier work
[2] = system: FXN mRNA in primary lymphocytes from FRDA patients; assay: FXN mRNA by qRT-PCR in primary FRDA patient lymphocytes; assay type: cell-based, human; conditions: for up-regulation of FXN mRNA: normalized to GAPDH mRNA, relative to DMSO
class I HDACs = conditions: ref Chou et al., 2008; cited from earlier work
[3] = system: frataxin protein in FRDA lymphoblasts; assay: Frataxin protein by western blot in FRDA lymphoblasts; assay type: cell-based, human; conditions: 106 or 3 at 10 μM, SAHA at 2 μM, 48 h, normalized to GAPDH
[4] = system: tubulin acetylation (class II HDAC6) in FRDA lymphoblasts; assay: Tubulin acetylation by western blot in FRDA lymphoblasts; assay type: cell-based, human
[5] = system: p21^WAF1 mRNA in HEK293 cells; assay: p21WAF1 mRNA levels in HEK293 cells; assay type: cell-based; conditions: data not shown
[6] = system: FXN mRNA in FRDA lymphoblasts; conditions: FRDA cells in culture; ref Herman et al., 2006; cited from earlier work
HDAC1 [7] = molecular target: T1, HDAC1 (Homo sapiens, UniProt Q13547); assay: IC50 with recombinant HDAC1; assay type: biochemical
T1 sequence (Q13547 whole entry): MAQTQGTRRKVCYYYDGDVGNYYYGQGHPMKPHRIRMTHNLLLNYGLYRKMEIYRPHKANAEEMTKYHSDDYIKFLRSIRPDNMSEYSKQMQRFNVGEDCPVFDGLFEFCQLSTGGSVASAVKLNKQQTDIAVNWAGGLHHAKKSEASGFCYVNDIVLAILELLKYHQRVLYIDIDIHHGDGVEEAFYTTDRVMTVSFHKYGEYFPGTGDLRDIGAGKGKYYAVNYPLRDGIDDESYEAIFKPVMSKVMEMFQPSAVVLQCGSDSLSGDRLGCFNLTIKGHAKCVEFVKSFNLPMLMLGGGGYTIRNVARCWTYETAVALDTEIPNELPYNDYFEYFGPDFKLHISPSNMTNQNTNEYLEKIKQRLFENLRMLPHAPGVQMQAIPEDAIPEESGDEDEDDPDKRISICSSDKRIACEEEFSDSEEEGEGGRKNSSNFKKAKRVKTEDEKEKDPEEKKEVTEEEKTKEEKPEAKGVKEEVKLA

recombinant HDAC2 = recombinant HDAC2 (Homo sapiens, UniProt Q92769); assay: Inhibition of recombinant HDAC2; assay type: biochemical; conditions: data not shown
Sequence of recombinant HDAC2 (Q92769 whole entry): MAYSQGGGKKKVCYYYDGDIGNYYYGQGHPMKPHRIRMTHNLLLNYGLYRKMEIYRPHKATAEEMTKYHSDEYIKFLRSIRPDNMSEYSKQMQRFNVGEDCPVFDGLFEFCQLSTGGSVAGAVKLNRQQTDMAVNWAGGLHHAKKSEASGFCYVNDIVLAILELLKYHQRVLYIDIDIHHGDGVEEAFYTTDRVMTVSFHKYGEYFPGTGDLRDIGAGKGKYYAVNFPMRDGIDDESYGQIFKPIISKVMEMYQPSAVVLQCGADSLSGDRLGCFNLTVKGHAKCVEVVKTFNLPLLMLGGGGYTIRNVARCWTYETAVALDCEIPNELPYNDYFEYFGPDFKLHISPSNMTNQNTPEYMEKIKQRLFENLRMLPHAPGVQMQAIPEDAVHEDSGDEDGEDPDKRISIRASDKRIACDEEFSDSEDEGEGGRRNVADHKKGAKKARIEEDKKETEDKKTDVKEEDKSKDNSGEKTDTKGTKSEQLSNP

HDAC1 [8] = molecular target: T1, HDAC1; assay: Ki and kinetics from enzyme progression curves, HDAC1; assay type: biochemical
HDAC3/NcoR2 = HDAC3/NcoR2 (Homo sapiens, UniProt O15379); assay: Ki and kinetics from enzyme progression curves, HDAC3; assay type: biochemical; conditions: fit of Kobs versus inhibitor concentration
Sequence of HDAC3/NcoR2 (O15379 whole entry): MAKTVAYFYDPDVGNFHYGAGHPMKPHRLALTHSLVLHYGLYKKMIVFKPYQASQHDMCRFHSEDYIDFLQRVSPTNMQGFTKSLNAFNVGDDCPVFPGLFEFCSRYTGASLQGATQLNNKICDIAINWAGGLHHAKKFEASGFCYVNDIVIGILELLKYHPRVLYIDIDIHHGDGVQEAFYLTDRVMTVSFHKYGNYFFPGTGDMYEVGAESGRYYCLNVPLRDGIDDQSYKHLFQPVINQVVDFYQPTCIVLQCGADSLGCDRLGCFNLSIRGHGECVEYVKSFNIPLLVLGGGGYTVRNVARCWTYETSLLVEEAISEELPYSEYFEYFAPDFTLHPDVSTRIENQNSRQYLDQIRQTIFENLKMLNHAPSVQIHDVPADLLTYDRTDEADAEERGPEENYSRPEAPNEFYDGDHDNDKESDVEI
Sequence of HDAC3/NcoR2 (Q9Y618 395-489 partner limits assumed): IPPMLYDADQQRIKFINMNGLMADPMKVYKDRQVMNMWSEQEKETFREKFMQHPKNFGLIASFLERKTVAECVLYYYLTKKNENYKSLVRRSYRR

Sirt2 = conditions: read-out: IC50 Sirt2; reported; ref Napper et al., 2005; cited from earlier work
[9] = system: FXN mRNA in FRDA lymphoblasts; assay: FXN mRNA by qRT-PCR in FRDA lymphoblast cell line; assay type: cell-based, human
Sirt1 = conditions: read-out: IC50 Sirt1; reported; ref Napper et al., 2005; cited from earlier work
[10] = system: FXN mRNA in patient fibroblasts; assay: FXN mRNA in FRDA patient fibroblasts; assay type: cell-based, human; conditions: concentrations up to 10 μM, not shown
HDAC7 = molecular target: T2, HDAC7 (Homo sapiens, UniProt Q8WUI4); assay: IC50 with recombinant HDAC7; assay type: biochemical
T2 sequence (Q8WUI4 1-952): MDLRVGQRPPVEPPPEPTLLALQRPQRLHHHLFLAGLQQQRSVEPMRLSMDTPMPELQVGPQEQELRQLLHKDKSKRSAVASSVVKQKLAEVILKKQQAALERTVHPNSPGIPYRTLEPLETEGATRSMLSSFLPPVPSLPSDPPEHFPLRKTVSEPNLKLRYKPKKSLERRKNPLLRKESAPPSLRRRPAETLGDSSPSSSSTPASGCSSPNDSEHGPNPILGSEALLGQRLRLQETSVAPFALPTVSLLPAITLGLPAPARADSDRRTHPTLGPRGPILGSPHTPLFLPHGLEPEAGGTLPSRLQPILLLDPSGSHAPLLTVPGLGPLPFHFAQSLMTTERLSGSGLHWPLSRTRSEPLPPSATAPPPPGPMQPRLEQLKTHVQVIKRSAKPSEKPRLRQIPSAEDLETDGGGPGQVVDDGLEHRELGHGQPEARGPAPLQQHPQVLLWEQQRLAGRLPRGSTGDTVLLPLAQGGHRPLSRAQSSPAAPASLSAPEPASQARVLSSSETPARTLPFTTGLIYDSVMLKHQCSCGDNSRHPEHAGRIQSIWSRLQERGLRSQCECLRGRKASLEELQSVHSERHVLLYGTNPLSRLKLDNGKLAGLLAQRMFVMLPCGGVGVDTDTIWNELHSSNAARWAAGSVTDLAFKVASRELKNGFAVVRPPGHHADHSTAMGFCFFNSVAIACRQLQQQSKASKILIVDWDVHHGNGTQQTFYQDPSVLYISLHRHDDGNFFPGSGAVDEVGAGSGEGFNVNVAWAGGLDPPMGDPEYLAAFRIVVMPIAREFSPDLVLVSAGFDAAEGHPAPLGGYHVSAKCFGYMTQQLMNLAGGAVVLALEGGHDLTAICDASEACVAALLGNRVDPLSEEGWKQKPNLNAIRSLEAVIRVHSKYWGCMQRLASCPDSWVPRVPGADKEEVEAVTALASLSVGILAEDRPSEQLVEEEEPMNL

HDAC = conditions: read-out: IC50 as HDAC inhibitor; ref Herman et al., 2006; cited from earlier work
[11] = recombinant HDAC1 vs HDAC3/NcoR2

Cc1ccc(NC(=O)CCCCCC(=O)Nc2ccccc2N)cc1 [compound 106]
activity against HDAC8 (recombinant HDAC8): only weak inhibitory activity; also recorded: only weakly active
hyperacetylation of histone H3 after inhibitor removal [1]: decreased only slightly
IC50 (class II HDACs): > 180 µM
up-regulation of FXN mRNA levels ([2]; 48 h): highly active
up-regulation of FXN mRNA ([2]; 48 h): 3 – 4 fold
inhibition kinetics with class I HDACs (class I HDACs): slow-on/slow-off
effect on frataxin protein levels [3]: positive effect
tubulin acetylation ([4]; FRDA lymphoblasts): Neither 106 nor 3 caused tubulin acetylation

O=C(CCCCCCC(=O)Nc1ccccc1)NO [SAHA, suberoylanilide hydroxamic acid, reference compound]
effect on frataxin protein levels [3]: decreased
p21^WAF1 mRNA levels [5]: increased
activation of FXN gene expression [6]: neither TSA nor SAHA is an activator

CC(/C=C/C(=O)NO)=C\[C@@H](C)C(=O)c1ccc(N(C)C)cc1 [TSA, trichostatin A, reference compound]
inhibition kinetics with class I HDACs (class I HDACs): fast-on/fast-off
activation of FXN gene expression [6]: neither TSA nor SAHA is an activator

Nc1ccc(-c2ccccc2)cc1NC(=O)CCCCCC(=O)Nc1ccccc1 [compound 3, N^1-(4-aminobiphenyl-3-yl)-N^7-phenylheptanediamide]
hyperacetylation of histone H3 after inhibitor removal [1]: decreased only slightly
HDAC inhibition in FRDA cells (histone acetylation titration) ([1]; increasing concentrations, western blotting): comparably active
preference for HDAC1 over HDAC3 comparing IC50 values (HDAC1 [7]; [11]): ~ 75 fold
activity against recombinant HDAC2 (recombinant HDAC2): similarly active
up-regulation of FXN mRNA levels ([2]; 48 h): fails to reproducibly up-regulate
up-regulation of FXN mRNA ([2]; 48 h): ≤ 1.7 fold
inhibition mechanism, HDAC1 (HDAC1 [8]; fit of Kobs versus inhibitor concentration): slow-on/slow-off
preference for HDAC1 over HDAC3 from Ki measurements (HDAC1 [8]; [11]): ~ 350 fold
effect on frataxin protein levels [3]: without significant effect
inhibition mechanism, HDAC3/NcoR2 (HDAC3/NcoR2): simple slow-on/slow-off mechanism
p21^WAF1 mRNA levels [5]: increased
tubulin acetylation ([4]; FRDA lymphoblasts): Neither 106 nor 3 caused tubulin acetylation

NC(=O)C1CCCc2c1[nH]c1ccc(Cl)cc21 (stereo not shown) [6-chloro-2,3,4,9-tetrahydro-1H-carbazole-1-carboxamide]
effect on FXN mRNA levels ([9]; concentrations up to 10 μM, not shown): no effect
effect on FXN mRNA levels ([2]; concentrations up to 10 μM, 48 h): no effect
effect on FXN mRNA levels [10]: no effect

CC(C)(C)OC(=O)Nc1ccc(NC(=O)CCCC(=O)C(F)(F)F)cc1 [compound 4, tert-butyl 4-(6,6,6-trifluoro-5-oxohexanamido)phenylcarbamate]
effect on levels of FXN mRNA ([9]; concentrations up to 10 μM for 24 h): no positive effect
IC50 (HDAC7): 4 µM
preference for a class II HDAC (HDAC7) over a class I HDAC (HDAC1) (HDAC7; from IC50 values): 7.5 fold
IC50 (HDAC1 [7]): 30 µM
up-regulation of FXN transcription ([2]; concentrations up to 40 μM): failed to show up-regulation
tubulin acetylation ([4]; 1 μM in culture medium for 24 h): potent inducer
tubulin acetylation ([4]; FRDA lymphoblasts): highly active

CCCC(CCC)C(=O)O [valproic acid]
activation of FXN gene expression [6]: none

O=C(CCCCCC(=O)Nc1ccccc1)Nc1ccccc1 [5b, N^1-phenyl-N^7-phenylheptanediamide]
IC50 (HDAC): ~200 µM
activation of FXN gene expression [6]: fails to activate
